Assay results as given in ChEMBL document CHEMBL4052776, “Discovery of 3-morpholino-imidazole[1,5-a]pyrazine BTK inhibitors for rheumatoid arthritis” (Bioorg Med Chem Lett, 2017).

Columns and labels:
[1] = target: T1, Tyrosine-protein kinase BTK (Homo sapiens, UniProt Q06187); assay: Inhibition of recombinant full-length His6-tagged BTK (unknown origin) expressed in baculovirus infected Sf9 cells using biotinylated A5 peptide as substrate preincubated for 60 mins followed by substrate addition measured after 120 mins by LANCE TR-FRET assay
T1 sequence (Q06187 whole entry): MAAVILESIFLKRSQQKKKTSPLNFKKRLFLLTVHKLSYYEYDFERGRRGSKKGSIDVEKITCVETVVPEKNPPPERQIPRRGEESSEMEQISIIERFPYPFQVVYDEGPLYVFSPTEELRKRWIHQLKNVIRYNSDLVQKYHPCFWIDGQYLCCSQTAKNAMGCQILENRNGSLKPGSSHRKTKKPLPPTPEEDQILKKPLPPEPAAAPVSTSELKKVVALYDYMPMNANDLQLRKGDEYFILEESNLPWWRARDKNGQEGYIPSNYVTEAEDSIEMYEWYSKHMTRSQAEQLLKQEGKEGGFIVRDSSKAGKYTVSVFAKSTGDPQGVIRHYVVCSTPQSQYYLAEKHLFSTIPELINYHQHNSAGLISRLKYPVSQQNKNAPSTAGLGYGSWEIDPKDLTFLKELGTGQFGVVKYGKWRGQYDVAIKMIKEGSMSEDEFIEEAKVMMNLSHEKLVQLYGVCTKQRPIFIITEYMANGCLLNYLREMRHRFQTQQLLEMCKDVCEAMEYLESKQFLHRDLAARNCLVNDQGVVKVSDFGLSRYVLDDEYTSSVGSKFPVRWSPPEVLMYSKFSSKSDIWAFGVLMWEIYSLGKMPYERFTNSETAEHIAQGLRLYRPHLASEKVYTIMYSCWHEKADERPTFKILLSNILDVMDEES

[2] = target: T1, Tyrosine-protein kinase BTK; assay: Inhibition of BTK in human PBMC assessed as reduction in anti-IgM-induced MIP1beta
[3] = target: Voltage-gated inwardly rectifying potassium channel KCNH2 (Homo sapiens, UniProt Q12809); assay: Inhibition of human ERG by [35S]-MK499 displacement or iKr channel assay
[4] = target: Tyrosine-protein kinase Blk (Homo sapiens, UniProt P51451); assay: Inhibition of BLK (unknown origin)
[5] = species: Homo sapiens; assay: Selectivity ratio of IC50 for BLK (unknown origin) to IC50 for BTK (unknown origin)
[6] = target: T2, Cytoplasmic tyrosine-protein kinase BMX (Homo sapiens, UniProt P51813); assay: Inhibition of BMX (unknown origin)
T2 sequence (P51813 whole entry): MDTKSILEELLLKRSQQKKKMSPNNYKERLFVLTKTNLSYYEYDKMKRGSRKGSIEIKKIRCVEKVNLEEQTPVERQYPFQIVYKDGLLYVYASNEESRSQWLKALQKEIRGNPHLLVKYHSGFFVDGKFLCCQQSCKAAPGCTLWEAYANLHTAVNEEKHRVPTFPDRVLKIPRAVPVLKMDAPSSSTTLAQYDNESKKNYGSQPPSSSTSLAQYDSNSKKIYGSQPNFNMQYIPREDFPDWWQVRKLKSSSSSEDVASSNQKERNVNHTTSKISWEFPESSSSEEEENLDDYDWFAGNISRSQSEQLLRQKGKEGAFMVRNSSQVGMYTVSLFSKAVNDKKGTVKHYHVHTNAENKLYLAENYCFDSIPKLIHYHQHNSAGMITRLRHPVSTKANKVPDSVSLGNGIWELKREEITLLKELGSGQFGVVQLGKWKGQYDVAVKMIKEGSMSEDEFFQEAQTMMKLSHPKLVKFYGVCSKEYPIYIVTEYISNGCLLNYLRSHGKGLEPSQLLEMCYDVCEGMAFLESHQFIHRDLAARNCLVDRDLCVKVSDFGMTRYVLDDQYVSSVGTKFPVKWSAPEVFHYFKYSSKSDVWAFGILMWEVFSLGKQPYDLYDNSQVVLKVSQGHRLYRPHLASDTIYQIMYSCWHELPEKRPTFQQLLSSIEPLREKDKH

[7] = species: Homo sapiens; assay: Selectivity ratio of IC50 for BMX (unknown origin) to IC50 for BTK (unknown origin)
[8] = target: Tyrosine-protein kinase CSK (Homo sapiens, UniProt P41240); assay: Inhibition of CSK (unknown origin)
Tyrosine-protein kinase CSK, sequence (P41240 whole entry): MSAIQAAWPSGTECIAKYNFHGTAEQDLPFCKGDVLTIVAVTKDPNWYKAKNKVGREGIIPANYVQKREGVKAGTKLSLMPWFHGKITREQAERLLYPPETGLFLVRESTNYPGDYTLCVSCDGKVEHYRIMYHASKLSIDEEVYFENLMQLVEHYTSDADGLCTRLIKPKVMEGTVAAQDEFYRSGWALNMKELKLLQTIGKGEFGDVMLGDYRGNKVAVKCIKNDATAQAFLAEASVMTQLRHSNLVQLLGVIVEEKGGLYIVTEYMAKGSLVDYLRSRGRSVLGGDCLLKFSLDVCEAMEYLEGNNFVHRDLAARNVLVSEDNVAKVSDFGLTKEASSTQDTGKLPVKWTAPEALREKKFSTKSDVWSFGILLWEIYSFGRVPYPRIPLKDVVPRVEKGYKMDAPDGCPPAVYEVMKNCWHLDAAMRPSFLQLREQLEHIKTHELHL

[9] = species: Homo sapiens; assay: Selectivity ratio of IC50 for CSK (unknown origin) to IC50 for BTK (unknown origin)
[10] = target: Receptor tyrosine-protein kinase erbB-4 (Homo sapiens, UniProt Q15303); assay: Inhibition of ERBB4 (unknown origin)
Receptor tyrosine-protein kinase erbB-4, sequence (Q15303 whole entry): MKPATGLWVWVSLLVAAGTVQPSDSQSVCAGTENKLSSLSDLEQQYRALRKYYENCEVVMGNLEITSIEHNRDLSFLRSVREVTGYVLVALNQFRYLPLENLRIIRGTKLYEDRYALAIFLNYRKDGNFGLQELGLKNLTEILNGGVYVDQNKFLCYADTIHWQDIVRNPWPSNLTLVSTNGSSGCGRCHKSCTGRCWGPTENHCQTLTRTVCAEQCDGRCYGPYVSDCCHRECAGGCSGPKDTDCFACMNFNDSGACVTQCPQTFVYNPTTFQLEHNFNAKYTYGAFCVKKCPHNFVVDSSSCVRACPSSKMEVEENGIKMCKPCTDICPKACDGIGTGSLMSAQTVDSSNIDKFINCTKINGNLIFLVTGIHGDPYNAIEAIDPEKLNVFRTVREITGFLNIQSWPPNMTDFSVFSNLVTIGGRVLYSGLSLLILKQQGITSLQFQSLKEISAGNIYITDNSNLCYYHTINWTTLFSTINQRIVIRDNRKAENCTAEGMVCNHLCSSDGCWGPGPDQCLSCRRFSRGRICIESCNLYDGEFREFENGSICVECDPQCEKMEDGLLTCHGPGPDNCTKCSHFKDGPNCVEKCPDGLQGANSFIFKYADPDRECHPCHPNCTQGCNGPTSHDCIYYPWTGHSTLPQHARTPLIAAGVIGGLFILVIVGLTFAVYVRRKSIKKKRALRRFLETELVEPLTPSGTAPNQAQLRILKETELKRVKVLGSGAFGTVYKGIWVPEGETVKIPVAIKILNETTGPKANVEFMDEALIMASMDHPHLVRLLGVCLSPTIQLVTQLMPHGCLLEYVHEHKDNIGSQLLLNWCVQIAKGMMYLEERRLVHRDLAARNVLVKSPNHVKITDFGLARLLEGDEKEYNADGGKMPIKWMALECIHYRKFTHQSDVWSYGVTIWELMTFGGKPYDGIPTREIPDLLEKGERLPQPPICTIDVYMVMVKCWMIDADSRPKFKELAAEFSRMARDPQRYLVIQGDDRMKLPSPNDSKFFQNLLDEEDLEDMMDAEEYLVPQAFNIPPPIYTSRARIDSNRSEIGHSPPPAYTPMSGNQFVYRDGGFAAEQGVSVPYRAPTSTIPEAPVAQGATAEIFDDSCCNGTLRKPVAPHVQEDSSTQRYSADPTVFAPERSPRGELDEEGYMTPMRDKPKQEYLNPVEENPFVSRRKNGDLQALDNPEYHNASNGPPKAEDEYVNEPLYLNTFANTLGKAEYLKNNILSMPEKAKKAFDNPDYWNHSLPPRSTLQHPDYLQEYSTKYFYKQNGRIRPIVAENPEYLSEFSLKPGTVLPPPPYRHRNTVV

[11] = species: Homo sapiens; assay: Selectivity ratio of IC50 for ERBB4 (unknown origin) to IC50 for BTK (unknown origin)
[12] = target: Tyrosine-protein kinase Fgr (Homo sapiens, UniProt P09769); assay: Inhibition of FGR (unknown origin)
Tyrosine-protein kinase Fgr, sequence (P09769 whole entry): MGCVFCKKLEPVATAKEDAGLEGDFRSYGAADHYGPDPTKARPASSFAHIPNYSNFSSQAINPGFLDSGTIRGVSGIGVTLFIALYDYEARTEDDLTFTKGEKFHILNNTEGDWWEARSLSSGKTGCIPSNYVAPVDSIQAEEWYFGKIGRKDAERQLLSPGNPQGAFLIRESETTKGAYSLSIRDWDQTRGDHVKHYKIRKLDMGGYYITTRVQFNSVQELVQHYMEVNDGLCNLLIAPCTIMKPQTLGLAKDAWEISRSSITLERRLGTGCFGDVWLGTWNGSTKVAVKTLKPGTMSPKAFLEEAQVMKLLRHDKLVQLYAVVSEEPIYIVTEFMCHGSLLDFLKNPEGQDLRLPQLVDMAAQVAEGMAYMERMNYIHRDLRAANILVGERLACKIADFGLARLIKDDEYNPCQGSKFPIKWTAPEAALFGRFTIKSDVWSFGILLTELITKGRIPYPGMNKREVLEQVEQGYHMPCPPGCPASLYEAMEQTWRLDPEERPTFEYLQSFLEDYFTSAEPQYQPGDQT

[13] = species: Homo sapiens; assay: Selectivity ratio of IC50 for FGR (unknown origin) to IC50 for BTK (unknown origin)
[14] = target: Tyrosine-protein kinase FRK (Homo sapiens, UniProt P42685); assay: Inhibition of FRK (unknown origin)
Tyrosine-protein kinase FRK, sequence (P42685 whole entry): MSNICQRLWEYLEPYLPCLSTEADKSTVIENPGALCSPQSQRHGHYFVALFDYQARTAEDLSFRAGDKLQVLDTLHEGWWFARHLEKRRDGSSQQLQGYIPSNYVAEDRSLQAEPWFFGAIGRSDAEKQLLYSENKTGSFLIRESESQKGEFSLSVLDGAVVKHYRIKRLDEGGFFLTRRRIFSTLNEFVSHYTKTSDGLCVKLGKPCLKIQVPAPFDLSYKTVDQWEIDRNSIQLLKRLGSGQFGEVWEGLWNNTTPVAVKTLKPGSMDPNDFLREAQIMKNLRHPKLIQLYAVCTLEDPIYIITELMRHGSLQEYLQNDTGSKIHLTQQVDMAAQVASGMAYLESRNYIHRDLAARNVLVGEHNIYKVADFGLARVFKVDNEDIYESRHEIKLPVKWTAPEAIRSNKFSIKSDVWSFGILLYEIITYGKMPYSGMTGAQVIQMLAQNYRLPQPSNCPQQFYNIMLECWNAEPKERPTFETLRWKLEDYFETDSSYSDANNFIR

[15] = species: Homo sapiens; assay: Selectivity ratio of IC50 for FRK (unknown origin) to IC50 for BTK (unknown origin)
[16] = target: Tyrosine-protein kinase Fyn (Homo sapiens, UniProt P06241); assay: Inhibition of FYN (unknown origin)
Tyrosine-protein kinase Fyn, sequence (P06241 whole entry): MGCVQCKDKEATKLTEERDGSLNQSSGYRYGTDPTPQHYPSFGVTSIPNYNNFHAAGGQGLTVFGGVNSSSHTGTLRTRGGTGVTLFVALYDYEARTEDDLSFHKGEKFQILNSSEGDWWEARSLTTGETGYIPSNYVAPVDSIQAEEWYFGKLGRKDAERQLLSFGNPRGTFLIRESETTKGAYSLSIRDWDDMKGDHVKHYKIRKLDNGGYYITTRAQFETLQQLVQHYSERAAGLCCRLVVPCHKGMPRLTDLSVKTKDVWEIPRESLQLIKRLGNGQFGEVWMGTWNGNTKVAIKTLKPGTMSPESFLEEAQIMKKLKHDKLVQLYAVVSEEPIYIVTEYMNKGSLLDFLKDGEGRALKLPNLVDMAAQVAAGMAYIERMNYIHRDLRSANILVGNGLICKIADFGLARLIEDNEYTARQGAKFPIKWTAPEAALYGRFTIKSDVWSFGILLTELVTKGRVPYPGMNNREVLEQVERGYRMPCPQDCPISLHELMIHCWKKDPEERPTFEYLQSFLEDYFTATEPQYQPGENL

[17] = species: Homo sapiens; assay: Selectivity ratio of IC50 for FYN (unknown origin) to IC50 for BTK (unknown origin)
[18] = target: Tyrosine-protein kinase Lck (Homo sapiens, UniProt P06239); assay: Inhibition of LCK (unknown origin)
[19] = species: Homo sapiens; assay: Selectivity ratio of IC50 for LCK (unknown origin) to IC50 for BTK (unknown origin)
[20] = target: Tyrosine-protein kinase Lyn (Homo sapiens, UniProt P07948); assay: Inhibition of LYNB (unknown origin)
Tyrosine-protein kinase Lyn, sequence (P07948 whole entry): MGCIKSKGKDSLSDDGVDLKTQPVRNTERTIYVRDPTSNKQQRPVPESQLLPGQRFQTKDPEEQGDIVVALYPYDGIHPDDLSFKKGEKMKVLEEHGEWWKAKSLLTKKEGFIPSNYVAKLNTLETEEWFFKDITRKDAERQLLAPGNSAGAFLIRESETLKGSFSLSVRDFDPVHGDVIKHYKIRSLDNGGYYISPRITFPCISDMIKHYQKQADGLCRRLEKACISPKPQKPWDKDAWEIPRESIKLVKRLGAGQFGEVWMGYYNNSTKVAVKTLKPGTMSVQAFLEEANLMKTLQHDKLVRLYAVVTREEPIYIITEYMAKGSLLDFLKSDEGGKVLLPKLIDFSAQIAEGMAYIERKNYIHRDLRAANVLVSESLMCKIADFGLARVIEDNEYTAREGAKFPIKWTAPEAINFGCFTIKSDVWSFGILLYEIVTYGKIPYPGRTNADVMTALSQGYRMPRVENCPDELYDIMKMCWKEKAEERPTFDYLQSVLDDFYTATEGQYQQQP

[21] = species: Homo sapiens; assay: Selectivity ratio of IC50 for LYNB (unknown origin) to IC50 for BTK (unknown origin)
[22] = target: Protein-tyrosine kinase 6 (Homo sapiens, UniProt Q13882); assay: Inhibition of PTK6 (unknown origin)
[23] = species: Homo sapiens; assay: Selectivity ratio of IC50 for PTK6 (unknown origin) to IC50 for BTK (unknown origin)
[24] = target: Proto-oncogene tyrosine-protein kinase Src (Homo sapiens, UniProt P12931); assay: Inhibition of SRC (unknown origin)
[25] = species: Homo sapiens; assay: Selectivity ratio of IC50 for SRC (unknown origin) to IC50 for BTK (unknown origin)
[26] = target: Tyrosine-protein kinase Srms (Homo sapiens, UniProt Q9H3Y6); assay: Inhibition of SRMS (unknown origin)
[27] = species: Homo sapiens; assay: Selectivity ratio of IC50 for SRMS (unknown origin) to IC50 for BTK (unknown origin)
[28] = target: T3, Tyrosine-protein kinase Tec (Homo sapiens, UniProt P42680); assay: Inhibition of TEC (unknown origin)
T3 sequence (P42680 whole entry): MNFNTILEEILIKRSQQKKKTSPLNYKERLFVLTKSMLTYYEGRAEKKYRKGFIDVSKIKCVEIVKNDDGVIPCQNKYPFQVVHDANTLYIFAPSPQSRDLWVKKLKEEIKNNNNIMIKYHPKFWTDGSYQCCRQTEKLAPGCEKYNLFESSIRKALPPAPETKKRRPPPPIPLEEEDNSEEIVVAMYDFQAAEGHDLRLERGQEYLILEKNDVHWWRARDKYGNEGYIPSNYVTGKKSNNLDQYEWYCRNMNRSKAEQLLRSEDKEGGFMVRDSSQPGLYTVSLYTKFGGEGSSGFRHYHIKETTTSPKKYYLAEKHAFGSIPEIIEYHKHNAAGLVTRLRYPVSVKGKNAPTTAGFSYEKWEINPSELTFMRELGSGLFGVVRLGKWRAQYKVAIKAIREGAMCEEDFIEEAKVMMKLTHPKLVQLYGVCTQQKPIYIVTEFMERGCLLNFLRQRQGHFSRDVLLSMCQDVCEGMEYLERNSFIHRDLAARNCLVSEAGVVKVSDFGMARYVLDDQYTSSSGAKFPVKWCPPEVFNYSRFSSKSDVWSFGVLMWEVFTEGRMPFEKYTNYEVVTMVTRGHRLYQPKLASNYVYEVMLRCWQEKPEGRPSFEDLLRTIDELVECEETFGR

[29] = species: Homo sapiens; assay: Selectivity ratio of IC50 for TEC (unknown origin) to IC50 for BTK (unknown origin)
[30] = target: T4, Tyrosine-protein kinase TXK (Homo sapiens, UniProt P42681); assay: Inhibition of TXK (unknown origin)
T4 sequence (P42681 whole entry): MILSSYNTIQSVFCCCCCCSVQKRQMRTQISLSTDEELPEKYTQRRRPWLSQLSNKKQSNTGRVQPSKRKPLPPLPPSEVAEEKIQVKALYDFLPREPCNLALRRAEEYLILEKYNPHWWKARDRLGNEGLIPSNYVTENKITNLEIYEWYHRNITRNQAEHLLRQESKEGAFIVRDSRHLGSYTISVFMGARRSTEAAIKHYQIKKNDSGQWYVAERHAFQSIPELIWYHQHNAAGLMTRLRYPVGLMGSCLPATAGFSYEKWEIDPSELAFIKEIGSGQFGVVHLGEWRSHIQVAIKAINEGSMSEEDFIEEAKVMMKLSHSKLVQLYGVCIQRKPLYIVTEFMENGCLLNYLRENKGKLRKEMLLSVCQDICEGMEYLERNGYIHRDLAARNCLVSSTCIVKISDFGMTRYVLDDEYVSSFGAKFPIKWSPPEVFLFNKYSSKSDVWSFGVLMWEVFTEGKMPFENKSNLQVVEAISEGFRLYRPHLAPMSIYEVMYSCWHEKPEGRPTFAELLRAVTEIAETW

[31] = species: Homo sapiens; assay: Selectivity ratio of IC50 for TXK (unknown origin) to IC50 for BTK (unknown origin)
[32] = target: Tyrosine-protein kinase Yes (Homo sapiens, UniProt P07947); assay: Inhibition of YES1 (unknown origin)
Tyrosine-protein kinase Yes, sequence (P07947 whole entry): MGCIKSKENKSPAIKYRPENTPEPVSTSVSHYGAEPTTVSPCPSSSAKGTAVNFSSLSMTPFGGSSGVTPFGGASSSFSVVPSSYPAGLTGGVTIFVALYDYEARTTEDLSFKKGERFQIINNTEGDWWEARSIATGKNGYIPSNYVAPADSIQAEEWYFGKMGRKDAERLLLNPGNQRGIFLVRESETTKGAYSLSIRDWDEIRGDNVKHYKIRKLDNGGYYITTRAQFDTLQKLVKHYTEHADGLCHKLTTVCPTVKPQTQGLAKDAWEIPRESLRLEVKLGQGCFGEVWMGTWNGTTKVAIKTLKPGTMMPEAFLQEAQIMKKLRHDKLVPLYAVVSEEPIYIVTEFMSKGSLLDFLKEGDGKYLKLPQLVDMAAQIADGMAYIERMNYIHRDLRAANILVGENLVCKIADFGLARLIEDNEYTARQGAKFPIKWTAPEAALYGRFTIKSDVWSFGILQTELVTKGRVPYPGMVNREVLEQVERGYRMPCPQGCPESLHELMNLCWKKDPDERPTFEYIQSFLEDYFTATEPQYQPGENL

[33] = species: Homo sapiens; assay: Selectivity ratio of IC50 for YES1 (unknown origin) to IC50 for BTK (unknown origin)
[34] = Total clearance in rat plasma at 10 mg/kg; assay type: ADME, organism-based
[35] = Half life in rat at 10 mg/kg; assay type: ADME, organism-based; details: in vivo
[36] = Oral bioavailability in rat at 10 mg/kg; assay type: ADME, organism-based; details: in vivo
[37] = Total clearance in dog plasma at 2 mg/kg administered as cassette dose; assay type: ADME, organism-based, Canis lupus familiaris
[38] = Half life in dog at 2 mg/kg administered as cassette dose; assay type: ADME, organism-based, Canis lupus familiaris; details: in vivo

| Structure (SMILES) | IC50 [1] | IC50 [2] | IC50 [4] | IC50 [6] | IC50 [8] | IC50 [10] | IC50 [12] | IC50 [14] | IC50 [16] | IC50 [18] | IC50 [20] | IC50 [22] | IC50 [24] | IC50 [26] | IC50 [28] | IC50 [30] | IC50 [32] | clearance [34] | half-life [35] | bioavailability [36] | other results |
| --- | --- | --- | --- | --- | --- | --- | --- | --- | --- | --- | --- | --- | --- | --- | --- | --- | --- | --- | --- | --- | --- |
| COCC(=O)N1CCO[C@@H](c2nc(-c3ccc(C(=O)Nc4cc(C(F)(F)F)ccn4)cc3F)c3c(N)nccn23)C1 | 0.00037 to 0.0004 µM | 0.014 µM | 0.078 µM | 0.331 µM | 0.626 µM | 0.169 µM | 0.069 µM | 0.214 µM | 0.571 µM | 0.028 µM | 0.268 µM | 0.077 µM | 0.123 µM | 0.076 µM | 0.232 µM | 0.256 µM | 0.073 µM | 0.492 L/h/kg | 0.8 h | 42% | IC50 [3]: 24 µM; Ratio IC50 [5]: 212; Ratio IC50 [7]: 895; Ratio IC50 [9]: 2230; Ratio IC50 [11]: 457; Ratio IC50 [13]: 187; Ratio IC50 [15]: 578; Ratio IC50 [17]: 1540; Ratio IC50 [19]: 75; Ratio IC50 [21]: 723; Ratio IC50 [23]: 209; Ratio IC50 [25]: 333; Ratio IC50 [27]: 205; Ratio IC50 [29]: 626; Ratio IC50 [31]: 691; Ratio IC50 [33]: 198; clearance [37]: 0.828 L/h/kg; half-life [38]: 2.5 h |
| Nc1nccn2c([C@H]3CN(C4CCOCC4)CCO3)nc(-c3ccc(C(=O)Nc4cc(C(F)(F)F)ccn4)cc3F)c12 | 0.00059 to 0.0006 µM | 0.013 µM | 0.05 µM | 0.2 µM | 0.665 µM | 0.076 µM | 0.039 µM | 0.132 µM | 0.248 µM | 0.021 µM | 0.399 µM | 0.113 µM | 0.112 µM | 0.065 µM | 0.191 µM | 0.282 µM | 0.06 µM | 1.38 L/h/kg | 1.1 h | 75% | clearance [37]: 0.354 L/h/kg; half-life [38]: 3.1 h |
